Measurements as given in ChEMBL document CHEMBL1201862, “PubChem BioAssay data set” (2004).
Values belong to the compound of their own block, whether it stands above or below them. Calls of active or inactive are those of the source.

Columns and labels:
[1] = molecular target: T1, E3 ubiquitin-protein ligase XIAP (Homo sapiens, UniProt P98170); assay: XIAP antagonists, biochemical, IAP family, fluorescence polarization (AID 1018); type: functional
[2] = molecular target: T1, E3 ubiquitin-protein ligase XIAP; assay: Counter Screen using XIAP-Bir3 for Chemical Antagonists of Bir1/2 domains of IAP-family anti-apoptotic proteins. [Related pubchem assays (depositor defined):AID1018, AID1449, AID1514, AID1638, AID1749, AID1750, AID488957, AID488963]
Cytochrome P450 2C9 = Cytochrome P450 2C9 (Homo sapiens, UniProt P11712)
Kallikrein-7 = Kallikrein-7 (Homo sapiens, UniProt P49862); assay: Fluorescence Intensity-based biochemical primary high throughput dose response assay to identify activators of kallikrein-7 (K7) zymogen.
Cytochrome P450 3A4 = Cytochrome P450 3A4 (Homo sapiens, UniProt P08684);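 note: CYP3A4 tested as one member of a cytochrome P450 panel screen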
[3] = molecular target: T2, Histone-lysine N-methyltransferase NSD2 (Homo sapiens, UniProt O96028); type: biochemical
T2 sequence (O96028 whole entry): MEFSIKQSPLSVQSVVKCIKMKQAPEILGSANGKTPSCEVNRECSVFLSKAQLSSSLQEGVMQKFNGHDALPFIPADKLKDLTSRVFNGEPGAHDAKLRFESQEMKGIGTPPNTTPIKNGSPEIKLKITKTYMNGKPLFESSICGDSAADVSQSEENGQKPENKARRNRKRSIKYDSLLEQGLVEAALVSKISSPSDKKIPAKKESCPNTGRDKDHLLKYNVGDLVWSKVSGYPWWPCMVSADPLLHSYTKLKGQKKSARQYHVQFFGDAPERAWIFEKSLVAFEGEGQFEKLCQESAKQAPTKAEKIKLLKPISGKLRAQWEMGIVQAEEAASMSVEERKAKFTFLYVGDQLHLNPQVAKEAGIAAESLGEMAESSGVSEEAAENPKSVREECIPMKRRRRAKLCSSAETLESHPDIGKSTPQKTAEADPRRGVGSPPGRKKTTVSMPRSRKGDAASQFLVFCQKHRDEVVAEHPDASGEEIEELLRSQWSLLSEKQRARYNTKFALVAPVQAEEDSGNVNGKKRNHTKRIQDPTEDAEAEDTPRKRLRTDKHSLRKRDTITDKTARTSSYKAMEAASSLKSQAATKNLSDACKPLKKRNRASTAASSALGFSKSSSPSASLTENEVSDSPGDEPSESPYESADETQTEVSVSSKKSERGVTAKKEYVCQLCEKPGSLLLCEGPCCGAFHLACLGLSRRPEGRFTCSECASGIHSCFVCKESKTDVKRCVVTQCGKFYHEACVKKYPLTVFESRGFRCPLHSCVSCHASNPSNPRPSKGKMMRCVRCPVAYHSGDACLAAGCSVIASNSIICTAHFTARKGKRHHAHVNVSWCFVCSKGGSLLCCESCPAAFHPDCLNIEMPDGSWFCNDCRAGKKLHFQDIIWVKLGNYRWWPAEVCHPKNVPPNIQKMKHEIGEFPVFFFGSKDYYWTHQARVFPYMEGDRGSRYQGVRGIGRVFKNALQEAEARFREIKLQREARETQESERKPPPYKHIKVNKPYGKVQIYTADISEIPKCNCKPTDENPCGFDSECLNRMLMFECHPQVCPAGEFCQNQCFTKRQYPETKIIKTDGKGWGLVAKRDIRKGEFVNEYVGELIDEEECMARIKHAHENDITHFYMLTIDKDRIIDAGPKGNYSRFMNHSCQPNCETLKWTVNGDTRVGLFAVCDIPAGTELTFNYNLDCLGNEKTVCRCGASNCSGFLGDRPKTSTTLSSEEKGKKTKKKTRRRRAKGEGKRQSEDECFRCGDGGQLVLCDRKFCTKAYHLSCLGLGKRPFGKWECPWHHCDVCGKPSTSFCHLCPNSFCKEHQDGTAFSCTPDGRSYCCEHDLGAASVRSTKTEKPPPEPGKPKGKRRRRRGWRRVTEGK

[4] = molecular target: T3, 1-phosphatidylinositol 4,5-bisphosphate phosphodiesterase beta-3 (Homo sapiens, UniProt Q01970); assay: Fluorescence-based biochemical high throughput dose response assay to identify inhibitors of phospholipase C isozymes (PLC-B3).
T3 sequence (Q01970 whole entry): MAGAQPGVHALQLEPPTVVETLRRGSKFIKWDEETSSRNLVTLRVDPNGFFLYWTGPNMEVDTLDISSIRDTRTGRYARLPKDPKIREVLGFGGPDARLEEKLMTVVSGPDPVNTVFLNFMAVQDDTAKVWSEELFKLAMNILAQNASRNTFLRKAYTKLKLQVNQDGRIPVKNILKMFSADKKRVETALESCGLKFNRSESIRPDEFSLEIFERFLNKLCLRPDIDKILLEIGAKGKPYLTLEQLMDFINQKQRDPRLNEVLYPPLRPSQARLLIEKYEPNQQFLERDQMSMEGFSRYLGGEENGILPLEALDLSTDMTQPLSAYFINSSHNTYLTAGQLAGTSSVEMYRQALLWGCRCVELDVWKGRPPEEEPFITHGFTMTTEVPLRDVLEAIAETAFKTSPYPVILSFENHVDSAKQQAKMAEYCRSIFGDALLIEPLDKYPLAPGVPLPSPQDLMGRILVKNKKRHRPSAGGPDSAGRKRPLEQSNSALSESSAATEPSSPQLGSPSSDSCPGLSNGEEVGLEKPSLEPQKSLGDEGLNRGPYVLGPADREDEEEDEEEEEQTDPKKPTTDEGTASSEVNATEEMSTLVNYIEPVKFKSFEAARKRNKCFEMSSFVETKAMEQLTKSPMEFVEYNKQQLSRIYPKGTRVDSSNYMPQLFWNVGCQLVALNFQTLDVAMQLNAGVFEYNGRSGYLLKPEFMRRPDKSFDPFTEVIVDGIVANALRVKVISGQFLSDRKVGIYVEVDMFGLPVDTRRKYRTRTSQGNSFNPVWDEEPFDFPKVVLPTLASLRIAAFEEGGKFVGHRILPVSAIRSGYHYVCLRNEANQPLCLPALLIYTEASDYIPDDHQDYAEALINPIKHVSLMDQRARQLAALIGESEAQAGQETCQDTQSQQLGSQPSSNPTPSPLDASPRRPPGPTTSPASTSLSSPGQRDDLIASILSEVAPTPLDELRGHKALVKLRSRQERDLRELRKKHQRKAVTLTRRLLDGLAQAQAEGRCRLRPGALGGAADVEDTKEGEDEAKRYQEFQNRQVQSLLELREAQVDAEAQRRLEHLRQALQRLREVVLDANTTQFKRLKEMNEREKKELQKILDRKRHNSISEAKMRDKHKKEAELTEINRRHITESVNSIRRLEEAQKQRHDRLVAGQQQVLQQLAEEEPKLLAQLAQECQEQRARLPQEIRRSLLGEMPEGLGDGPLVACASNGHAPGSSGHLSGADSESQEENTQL

[5] = molecular target: T4, 1-phosphatidylinositol 4,5-bisphosphate phosphodiesterase gamma-1 (Homo sapiens, UniProt P19174); assay: Counterscreen for inhibitors of phospholipase C isozymes (PLC-B3): Fluorescence-based biochemical high throughput dose response assay to identify inhibitors of phospholipase C isozymes (PLC-gamma1).
T4 sequence (P19174 whole entry): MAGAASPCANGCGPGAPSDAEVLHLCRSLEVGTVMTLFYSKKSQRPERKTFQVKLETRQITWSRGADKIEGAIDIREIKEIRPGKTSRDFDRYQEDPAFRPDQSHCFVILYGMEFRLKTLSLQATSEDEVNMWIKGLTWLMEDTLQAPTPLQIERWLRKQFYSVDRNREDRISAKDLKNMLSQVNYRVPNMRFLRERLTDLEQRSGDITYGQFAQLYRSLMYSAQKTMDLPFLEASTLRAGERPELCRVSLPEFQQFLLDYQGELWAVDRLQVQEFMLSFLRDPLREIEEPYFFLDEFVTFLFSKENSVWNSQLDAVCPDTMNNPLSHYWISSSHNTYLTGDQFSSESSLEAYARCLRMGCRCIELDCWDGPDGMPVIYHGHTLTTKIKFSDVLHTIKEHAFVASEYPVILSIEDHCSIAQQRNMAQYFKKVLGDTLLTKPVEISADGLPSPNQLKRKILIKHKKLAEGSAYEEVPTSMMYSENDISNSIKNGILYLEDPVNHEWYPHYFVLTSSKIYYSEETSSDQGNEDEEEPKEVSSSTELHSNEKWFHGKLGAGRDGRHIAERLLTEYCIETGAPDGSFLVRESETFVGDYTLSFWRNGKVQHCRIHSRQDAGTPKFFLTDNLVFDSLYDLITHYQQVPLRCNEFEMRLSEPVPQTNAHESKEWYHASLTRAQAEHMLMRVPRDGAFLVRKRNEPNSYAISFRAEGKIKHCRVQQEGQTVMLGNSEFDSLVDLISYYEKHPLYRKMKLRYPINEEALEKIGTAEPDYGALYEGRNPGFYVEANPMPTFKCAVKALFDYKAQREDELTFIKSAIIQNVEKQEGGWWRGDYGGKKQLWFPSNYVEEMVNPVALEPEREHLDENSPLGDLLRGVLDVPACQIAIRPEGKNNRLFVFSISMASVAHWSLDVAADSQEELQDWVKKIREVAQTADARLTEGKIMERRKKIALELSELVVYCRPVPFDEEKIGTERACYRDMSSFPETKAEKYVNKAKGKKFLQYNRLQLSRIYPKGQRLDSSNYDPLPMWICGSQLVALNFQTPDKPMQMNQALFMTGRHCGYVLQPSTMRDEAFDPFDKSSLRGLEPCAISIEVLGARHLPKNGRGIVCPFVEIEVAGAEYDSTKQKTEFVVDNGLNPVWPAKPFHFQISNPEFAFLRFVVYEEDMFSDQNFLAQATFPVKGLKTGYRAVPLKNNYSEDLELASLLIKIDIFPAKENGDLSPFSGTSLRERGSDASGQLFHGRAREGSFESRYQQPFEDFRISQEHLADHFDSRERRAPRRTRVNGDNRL

[6] = enhancers of respiration in Yfh1-depleted yeast, dose response, Friedreich's ataxia, plus single-dose screen (AID 1465); type: functional;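 note: yeast depleted of Yfh1p frataxin homolog grown on glycerol needing respiration; WST-1 tetrazolium dye reduction as measure of cellular dehydrogenase metabolic activity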
[7] = molecular target: T5, Mannose-6-phosphate isomerase (Homo sapiens, UniProt P34949); assay: human PMI inhibitors, high substrate, primary screen, biochemical, fluorescence intensity, high mannose 6-phosphate (AID 1220)
T5 sequence (P34949 whole entry): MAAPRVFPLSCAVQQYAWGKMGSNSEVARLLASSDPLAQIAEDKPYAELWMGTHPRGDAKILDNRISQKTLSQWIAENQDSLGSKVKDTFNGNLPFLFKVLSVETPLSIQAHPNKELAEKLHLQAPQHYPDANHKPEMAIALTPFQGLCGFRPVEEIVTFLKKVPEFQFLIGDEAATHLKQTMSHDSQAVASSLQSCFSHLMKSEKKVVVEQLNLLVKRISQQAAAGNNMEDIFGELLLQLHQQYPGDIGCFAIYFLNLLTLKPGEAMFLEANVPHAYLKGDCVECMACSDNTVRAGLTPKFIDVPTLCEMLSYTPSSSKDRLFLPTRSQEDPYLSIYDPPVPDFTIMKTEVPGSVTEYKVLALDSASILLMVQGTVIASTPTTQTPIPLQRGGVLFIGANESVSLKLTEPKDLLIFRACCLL

[8] = P. falciparum ATP4 D1247Y mutant growth inhibitors, dose response, NITD609-resistant line, SYBR Green, dry powder (AID 1159571); type: functional, cell-based;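 note: parasites synchronized at ring stage by sorbitol before testing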
[9] = HepG2 cell cytotoxicity, dose response, cytotoxicity control, plate reader, dry powder samples (AID 1159569); type: functional, cell-based;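 note: inhibitor potency with signal falling toward the positive control level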
[10] = P. falciparum Dd2 growth inhibitors, dose response, SYBR Green, cherry-picked samples (AID 1159567); type: functional, cell-based
[11] = P. falciparum 3D7-ScDHODH growth inhibitors, dose response, SYBR Green, dry powder samples (AID 1159570); type: functional, cell-based;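 note: parasite growth measured after 72 hours of compound exposure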
[12] = P. falciparum Dd2 growth inhibitors, dose response, SYBR Green, dry powder samples (AID 1159566); type: functional, cell-based;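 note: potency for growth inhibition with lower SYBR green DNA signal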

Sequence of Kallikrein-7 (P49862 whole entry): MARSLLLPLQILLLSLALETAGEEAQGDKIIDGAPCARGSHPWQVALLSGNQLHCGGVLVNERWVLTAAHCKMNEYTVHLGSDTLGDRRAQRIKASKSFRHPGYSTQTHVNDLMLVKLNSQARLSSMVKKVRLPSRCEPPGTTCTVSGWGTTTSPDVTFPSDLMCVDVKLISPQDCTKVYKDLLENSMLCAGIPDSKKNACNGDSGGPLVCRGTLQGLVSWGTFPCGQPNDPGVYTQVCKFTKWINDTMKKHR
T1 sequence (P98170 whole entry): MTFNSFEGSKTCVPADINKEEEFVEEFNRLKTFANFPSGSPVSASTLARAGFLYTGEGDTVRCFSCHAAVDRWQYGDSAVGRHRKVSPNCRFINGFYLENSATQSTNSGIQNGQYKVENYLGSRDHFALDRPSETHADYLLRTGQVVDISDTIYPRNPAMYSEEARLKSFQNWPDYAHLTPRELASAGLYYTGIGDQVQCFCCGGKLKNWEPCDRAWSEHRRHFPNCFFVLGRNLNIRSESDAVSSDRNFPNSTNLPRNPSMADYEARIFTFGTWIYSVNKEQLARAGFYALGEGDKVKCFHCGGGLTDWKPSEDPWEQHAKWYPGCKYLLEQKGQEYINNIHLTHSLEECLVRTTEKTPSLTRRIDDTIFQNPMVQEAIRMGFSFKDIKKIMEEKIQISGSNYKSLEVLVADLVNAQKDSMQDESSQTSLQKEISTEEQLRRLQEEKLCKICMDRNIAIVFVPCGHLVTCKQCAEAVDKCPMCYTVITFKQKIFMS
Sequence of Cytochrome P450 2C9 (P11712 whole entry): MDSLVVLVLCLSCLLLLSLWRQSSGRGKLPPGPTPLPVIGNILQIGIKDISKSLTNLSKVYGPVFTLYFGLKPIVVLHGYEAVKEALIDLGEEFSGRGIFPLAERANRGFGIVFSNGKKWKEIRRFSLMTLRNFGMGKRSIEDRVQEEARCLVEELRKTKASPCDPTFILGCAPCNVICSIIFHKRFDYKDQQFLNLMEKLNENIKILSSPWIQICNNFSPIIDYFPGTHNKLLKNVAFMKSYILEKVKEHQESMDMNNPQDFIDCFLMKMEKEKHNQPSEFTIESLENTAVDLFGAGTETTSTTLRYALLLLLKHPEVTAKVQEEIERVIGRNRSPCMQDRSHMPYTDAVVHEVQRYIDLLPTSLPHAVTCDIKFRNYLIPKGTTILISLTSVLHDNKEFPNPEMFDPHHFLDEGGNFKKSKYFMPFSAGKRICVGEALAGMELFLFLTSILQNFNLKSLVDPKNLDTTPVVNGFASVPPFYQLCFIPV
Sequence of Cytochrome P450 3A4 (P08684 whole entry): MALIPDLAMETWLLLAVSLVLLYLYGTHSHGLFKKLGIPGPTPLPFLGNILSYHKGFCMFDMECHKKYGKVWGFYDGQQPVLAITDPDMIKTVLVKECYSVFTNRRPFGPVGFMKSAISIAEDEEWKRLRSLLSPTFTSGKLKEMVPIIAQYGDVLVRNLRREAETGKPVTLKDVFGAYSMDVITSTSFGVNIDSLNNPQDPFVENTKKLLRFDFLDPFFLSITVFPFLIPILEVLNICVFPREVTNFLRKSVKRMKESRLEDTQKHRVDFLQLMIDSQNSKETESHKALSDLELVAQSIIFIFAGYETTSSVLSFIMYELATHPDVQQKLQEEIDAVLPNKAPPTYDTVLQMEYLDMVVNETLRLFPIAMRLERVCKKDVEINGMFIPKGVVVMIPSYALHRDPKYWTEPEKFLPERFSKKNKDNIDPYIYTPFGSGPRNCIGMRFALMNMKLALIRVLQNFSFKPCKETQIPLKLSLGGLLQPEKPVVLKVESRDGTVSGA

IC50 [1]: > 100 µM (not active)
IC50 [2]: > 100 µM (inactive)
SMILES: COc1ccc(S(=O)(=O)N2CCCC2)c(C)c1C

IC50 [1]: > 100 µM (not active)
IC50 [2]: > 100 µM (inactive)
SMILES: O=C(c1ccc(S(=O)(=O)NCC2CCCO2)cc1)N1CCN(c2cccc(Cl)c2)CC1 (stereo unspecified)

AC50 (Cytochrome P450 2C9): inconclusive
EC50 (Kallikrein-7): 9.46 µM (active)
AC50 (Cytochrome P450 3A4): 31.6 µM (inconclusive)
SMILES: C=CCNc1sc(C(=O)c2ccc(C)cc2)c(N)c1C#N

EC50 (Kallikrein-7): 8.31 µM (active)
SMILES: COc1cc(NC(=O)COc2ccccc2Cl)ccc1NC(=O)c1cccs1

AC50 [3]: > 20 µM (inactive)
IC50 [1]: > 100 µM (not active)
IC50 [2]: > 100 µM (inactive)
SMILES: CCN(CC)CCNC(=O)/C(=C\c1cccn1C)NC(=O)c1cccs1

IC50 [4]: > 122 µM (inactive)
IC50 [5]: > 122 µM (inactive)
SMILES: Oc1c2nc3ccccc3c-2ncn1CCN1CCOCC1

EC50 (Kallikrein-7): 8.82 µM (active)
SMILES: O=C(C[C@H]1C[C@H](C(=O)N2CCCCC2)[C@@]2(CCc3ccccc3)c3[nH]c4cc(-c5ccco5)ccc4c3CCN2C1=O)NCCN1CCOCC1

SMILES: O=[N+]([O-])c1ccc(N2CCCC2)cc1N/N=C1\CN2CCC1CC2
EC50 [6]: > 100 µM (active)

IC50 [7]: > 50 µM (not active)
SMILES: Cc1ccc(O)c(/N=C/c2ccc(C)s2)c1

SMILES: O=C(Nc1ccc(F)cc1)N1CCCCN2[C@H](CO)[C@H](c3ccc(C#Cc4ccccc4)cc3)[C@@H]2C1
AC50 [8]: 21.4 nM (active)
AC50 [9]: 80.3 µM (active)
AC50 [10]: < 300 nM (active)
AC50 [11]: 20.1 nM (active)
AC50 [12]: 16.7 nM (active)

SMILES: COc1ccc2c3c(n(C)c2c1)[C@H](CO)N(C(=O)Nc1ccc(F)cc1)CC31CCN(C)CC1
AC50 [8]: 4610 nM (active)
AC50 [9]: 54.1 µM (active)
AC50 [10]: 2670 nM (active)
AC50 [11]: 4110 nM (active)
AC50 [12]: 2870 nM (active)
